Data as given in US10538555B2, “Macrocyclic inhibitors of the PD-1/PD-L1 and CD80(B7-1)/PD-L1 protein/protein interactions” (BRISTOL-MYERS SQUIBB COMPANY, priority 2014, dated 2020).
pIC50: −log10 of the molar value. Where two headings read alike, the source gives them in different places. *1 amine or outer side, *2 acyl side, *3 side chain or, on linkers, in order; H or OH if unused. Where a SMILES comes first, the peptide text is derived from it. Bridges are numbered along the chain shown (N, C = ends). [ ]: non-standard residue; d: D form. ξ: configuration not given here. Phe(3,4,5-F3) = N[C@@H](Cc1cc(F)c(F)c(F)c1)C(=O)O; Trp(5-Cl) = N[C@@H](Cc1c[nH]c2ccc(Cl)cc12)C(=O)O; Phe(3,4-F2) = N[C@@H](Cc1ccc(F)c(F)c1)C(=O)O; NMePhe(4-F) = CN[C@@H](Cc1ccc(F)cc1)C(=O)O; Phe(4-F) = N[C@@H](Cc1ccc(F)cc1)C(=O)O; d(cisHyp) = O=C(O)[C@H]1C[C@@H](O)CN1; NMeIle(3ξ) = CCC(C)[C@H](NC)C(=O)O; Hyp = O=C(O)[C@@H]1C[C@@H](O)CN1; NMeF = CN[C@@H](Cc1ccccc1)C(=O)O; X1 = O=C([C@H]1COCCN1[*:1])[*:2]; dNMeF = CN[C@H](Cc1ccccc1)C(=O)O; dHyp = O=C(O)[C@H]1C[C@H](O)CN1; NMeNle = CCCC[C@H](NC)C(=O)O; Pip = O=C(O)[C@@H]1CCCCN1; dPip = O=C(O)[C@H]1CCCCN1; hSer = N[C@@H](CCO)C(=O)O; NMeA = CN[C@@H](C)C(=O)O; Orn = NCCC[C@H](N)C(=O)O; dThz = O=C(O)[C@H]1CSCN1; Dab = NCC[C@H](N)C(=O)O; Dap = NC[C@H](N)C(=O)O; ξC = NC(CS)C(=O)O; Sar = CNCC(=O)O

Biological target: T1, Human PD-L1/PD-1 (Homo sapiens, UniProt Q9NZQ7)
T1 construct: TVMV protease cleavage site (C); made in house; host or cells: HEK293T cells
T1 sequence (Q9NZQ7 with tags, fused parts or gaps): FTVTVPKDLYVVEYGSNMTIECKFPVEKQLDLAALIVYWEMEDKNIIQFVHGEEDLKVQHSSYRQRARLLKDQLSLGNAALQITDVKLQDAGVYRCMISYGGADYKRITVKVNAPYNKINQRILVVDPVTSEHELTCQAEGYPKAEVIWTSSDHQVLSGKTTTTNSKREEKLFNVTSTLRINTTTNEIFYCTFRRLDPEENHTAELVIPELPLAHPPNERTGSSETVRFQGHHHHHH
Test: HTRF Human PD-L1/PD-1 binding assay (PD-1-Ig/PD-L1-His)
Conditions: PD-L1-His 10 nM, PD-1-Ig 20 nM
Summary of the method: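 Inhibitors were preincubated 15 min with human PD-L1(18-239)-His (10 nM final), then PD-1(25-167)-Ig (20 nM final) was added for 15 min in dPBS/0.1% BSA/0.05% Tween-20. Eu-cryptate anti-Ig (1 nM) and APC anti-His (20 nM) were added; 665/620 nm ratio read after 30 min.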

[1] = class symbol, read-out: HTRF Human PD-L1/PD-1 Binding Assay IC50 Range

Compound	pIC50 [1]	pIC50 (read-out: HTRF Human PD-L1/PD-1 Binding Assay IC50)
CCCC[C@H]1C(=O)N(C)[C@@H](CCCC)C(=O)N[C@@H](C)C(=O)N[C@H](C(=O)NCC(N)=O)CSCC(=O)N[C@@H](Cc2ccc(O)cc2)C(=O)N2CCCC[C@H]2C(=O)N[C@@H](CC(=O)O)C(=O)N2CCC[C@H]2C(=O)N[C@@H](CN)C(=O)N[C@@H](CCC(N)=O)C(=O)N2C[C@H](O)C[C@H]2C(=O)N[C@@H](Cc2c[nH]c3ccccc23)C(=O)N[C@@H](CO)C(=O)N[C@@H](Cc2c[nH]c3ccccc23)C(=O)N1C [Example 1257] ({CH2CO}-Y[Pip]DP[Dap]Q[Hyp]WSW[NMeNle][NMeNle]ACG-NH2; thioether N-14)	8.00 to 9.00	–
CCCC[C@H]1C(=O)N2CCC[C@@H]2C(=O)N[C@@H](CC(=O)O)C(=O)N[C@@H](C(C)C)C(=O)N(C)[C@@H](Cc2ccc(F)cc2)C(=O)N[C@@H](CCCN)C(=O)N2CCC[C@@H]2C(=O)N[C@@H](Cc2c[nH]c3ccccc23)C(=O)N[C@@H](Cc2ccc(O)cc2)C(=O)N[C@@H](CC(C)C)C(=O)N[C@H](C(=O)NCC(N)=O)CSCC(=O)N[C@@H](Cc2ccc(F)cc2)C(=O)N(C)[C@@H](Cc2ccccc2)C(=O)N1C [Example 10108] ({CH2CO}-[Phe(4-F)][NMeF][NMeNle][dP]DV[NMePhe(4-F)][Orn][dP]WYLCG-NH2; thioether N-13)	8.00 to 9.00	–
CCCC[C@H]1C(=O)N2CCC[C@@H]2C(=O)N[C@@H](CC(=O)O)C(=O)N[C@@H](C(C)C)C(=O)N(C)[C@@H](Cc2ccccc2)C(=O)N[C@@H](Cc2ccc(O)cc2)C(=O)N2C[C@H](O)C[C@@H]2C(=O)N[C@@H](Cc2c[nH]c3ccccc23)C(=O)N[C@@H](Cc2ccc(O)cc2)C(=O)N[C@@H](CCOC)C(=O)N[C@H](C(=O)NCC(N)=O)CSCC(=O)N[C@@H](Cc2cc(F)c(F)c(F)c2)C(=O)N(C)[C@@H](Cc2ccccc2)C(=O)N1C [Example 10181] ({CH2CO}-[Phe(3,4,5-F3)][NMeF][NMeNle][dP]DV[NMeF]Y[d(cisHyp)]WY[hSer](Me)CG-NH2; thioether N-13)	8.00 to 9.00	–
CCCC[C@H]1C(=O)N2C[C@@H](O)C[C@@H]2C(=O)N[C@@H](CC(=O)O)C(=O)N[C@@H](C(C)C)C(=O)N(C)[C@H](Cc2ccccc2)C(=O)N[C@@H](Cc2ccc(O)cc2)C(=O)N2C[C@@H](O)C[C@@H]2C(=O)N[C@@H](Cc2c[nH]c3ccccc23)C(=O)N[C@@H](Cc2ccc(O)cc2)C(=O)N[C@@H](CCCN)C(=O)N[C@H](C(=O)NCC(N)=O)CSCC(=O)N[C@@H](Cc2ccc(F)c(F)c2)C(=O)N(C)[C@@H](Cc2ccccc2)C(=O)N1C [Example 9232] ({CH2CO}-[Phe(3,4-F2)][NMeF][NMeNle][dHyp]DV[dNMeF]Y[dHyp]WY[Orn]CG-NH2; thioether N-13)	8.00 to 9.00	–
CCCC[C@H]1C(=O)N2CCC[C@@H]2C(=O)N[C@@H](CC(=O)O)C(=O)N[C@@H](C(C)C)C(=O)N(C)[C@@H](Cc2ccccc2)C(=O)N[C@@H](CCCN)C(=O)N2CCC[C@@H]2C(=O)N[C@@H](Cc2c[nH]c3ccccc23)C(=O)N[C@@H](Cc2ccc(O)cc2)C(=O)N[C@@H](CC(C)C)C(=O)N[C@H](C(=O)NCC(N)=O)CSCC(=O)N[C@@H](Cc2ccc(F)cc2)C(=O)N(C)[C@@H](Cc2ccccc2)C(=O)N1C [Example 10102] ({CH2CO}-[Phe(4-F)][NMeF][NMeNle][dP]DV[NMeF][Orn][dP]WYLCG-NH2; thioether N-13)	8.00 to 9.00	–
CCCC[C@H]1C(=O)N2C[C@@H](O)C[C@@H]2C(=O)N[C@@H](CC(=O)O)C(=O)N[C@@H](C(C)C)C(=O)N(C)[C@@H](Cc2ccccc2)C(=O)N[C@@H](CCC(=O)O)C(=O)N2CCCC[C@@H]2C(=O)N[C@@H](Cc2c[nH]c3ccccc23)C(=O)N[C@@H](Cc2ccc(O)cc2)C(=O)N[C@@H](CN)C(=O)N[C@H](C(=O)NCC(N)=O)CSCC(=O)N[C@@H](Cc2cc(F)c(F)c(F)c2)C(=O)N(C)[C@@H](Cc2ccc(F)cc2)C(=O)N1C [Example 10567] ({CH2CO}-[Phe(3,4,5-F3)][NMePhe(4-F)][NMeNle][dHyp]DV[NMeF]E[dPip]WY[Dap]CG-NH2; thioether N-13)	8.00 to 9.00	–
CCCC[C@H]1C(=O)N(C)[C@@H](CCCC)C(=O)N[C@@H](CCC(=O)O)C(=O)NC(C(=O)NCC(N)=O)CSCC(=O)N[C@@H](Cc2ccc(O)cc2)C(=O)N(C)[C@@H](C)C(=O)N[C@@H](CC(N)=O)C(=O)N2CCC[C@H]2C(=O)N[C@@H](CC(N)=O)C(=O)N[C@@H](CC(C)C)C(=O)N2C[C@H](O)C[C@H]2C(=O)N[C@@H](Cc2c[nH]c3ccccc23)C(=O)N[C@@H](CCN)C(=O)N[C@@H](Cc2c[nH]c3ccccc23)C(=O)N1C (stereo partly drawn) [Example 9181] ({CH2CO}-Y[NMeA]NPNL[Hyp]W[Dab]W[NMeNle][NMeNle]E[ξC]G-NH2; thioether N-14)	8.00 to 9.00	–
CCCC[C@H]1C(=O)N2CCC[C@@H]2C(=O)N[C@@H](CCC(=O)O)C(=O)N[C@@H](C(C)C)C(=O)N(C)[C@@H](Cc2ccccc2)C(=O)N[C@@H](CC(=O)O)C(=O)N2CCCC[C@@H]2C(=O)N[C@@H](Cc2c[nH]c3ccccc23)C(=O)N[C@@H](Cc2ccc(O)cc2)C(=O)N[C@@H](CC(C)C)C(=O)N[C@H](C(=O)NCC(N)=O)CSCC(=O)N[C@@H](Cc2cc(F)c(F)c(F)c2)C(=O)N(C)[C@@H](Cc2ccc(F)cc2)C(=O)N1C [Example 10580] ({CH2CO}-[Phe(3,4,5-F3)][NMePhe(4-F)][NMeNle][dP]EV[NMeF]D[dPip]WYLCG-NH2; thioether N-13)	8.00 to 9.00	–
CCCC[C@H]1C(=O)N2CCC[C@@H]2C(=O)N[C@@H](CC(=O)O)C(=O)N[C@@H](C(C)C)C(=O)N(C)[C@@H](Cc2ccccc2)C(=O)N[C@@H](CC(=O)O)C(=O)N2CSC[C@@H]2C(=O)N[C@@H](Cc2c[nH]c3ccccc23)C(=O)N[C@@H](Cc2ccc(O)cc2)C(=O)N[C@@H](CC(C)C)C(=O)N[C@H](C(=O)NCC(N)=O)CSCC(=O)N[C@@H](Cc2cc(F)c(F)c(F)c2)C(=O)N(C)[C@@H](Cc2ccccc2)C(=O)N1C [Example 10091] ({CH2CO}-[Phe(3,4,5-F3)][NMeF][NMeNle][dP]DV[NMeF]D[dThz]WYLCG-NH2; thioether N-13)	–	8.60
CCCC[C@H]1C(=O)N2C[C@H](O)C[C@@H]2C(=O)N[C@@H](CC(=O)O)C(=O)N[C@@H](C(C)C)C(=O)N(C)[C@@H](Cc2ccccc2)C(=O)N[C@@H](CCCN)C(=O)N2CCOC[C@@H]2C(=O)N[C@@H](Cc2c[nH]c3ccccc23)C(=O)N[C@@H](Cc2ccc(O)cc2)C(=O)N[C@@H](CCO)C(=O)N[C@H](C(=O)NCC(N)=O)CSCC(=O)N[C@@H](Cc2cc(F)c(F)c(F)c2)C(=O)N(C)[C@@H](Cc2ccccc2)C(=O)N1C [Example 10158] ({CH2CO}-[Phe(3,4,5-F3)][NMeF][NMeNle][d(cisHyp)]DV[NMeF][Orn][X1]WY[hSer]CG-NH2; thioether N-13)	8.00 to 9.00	–
CCCC[C@H]1C(=O)N2CCOC[C@@H]2C(=O)N[C@@H](CC(=O)O)C(=O)N[C@@H](C(C)C)C(=O)N(C)[C@@H](Cc2ccccc2)C(=O)N[C@@H](CCC(=O)O)C(=O)N2C[C@H](O)C[C@@H]2C(=O)N[C@@H](Cc2c[nH]c3ccccc23)C(=O)N[C@@H](Cc2ccc(O)cc2)C(=O)N[C@@H](CCOC)C(=O)N[C@H](C(=O)NCC(N)=O)CSCC(=O)N[C@@H](Cc2cc(F)c(F)c(F)c2)C(=O)N(C)[C@@H](Cc2ccccc2)C(=O)N1C [Example 10189] ({CH2CO}-[Phe(3,4,5-F3)][NMeF][NMeNle][X1]DV[NMeF]E[d(cisHyp)]WY[hSer](Me)CG-NH2; thioether N-13)	7.00 to 8.00	–
CCCC[C@H]1C(=O)N2C[C@H](O)C[C@@H]2C(=O)N[C@@H](CC(=O)O)C(=O)N[C@@H](C(C)C)C(=O)N(C)[C@@H](Cc2ccccc2)C(=O)N[C@@H](CCC(=O)O)C(=O)N2CCC[C@@H]2C(=O)N[C@@H](Cc2c[nH]c3ccccc23)C(=O)N[C@@H](Cc2ccc(O)cc2)C(=O)N[C@@H](CCCN)C(=O)N[C@H](C(=O)NCC(N)=O)CSCC(=O)N[C@@H](Cc2cc(F)c(F)c(F)c2)C(=O)N(C)[C@@H](Cc2ccccc2)C(=O)N1C [Example 3646] ({CH2CO}-[Phe(3,4,5-F3)][NMeF][NMeNle][d(cisHyp)]DV[NMeF]E[dP]WY[Orn]CG-NH2; thioether N-13)	7.00 to 8.00	–
CCCC[C@H]1C(=O)N2CCC[C@@H]2C(=O)N[C@@H](CC(=O)O)C(=O)N[C@@H](C(C)C)C(=O)N(C)[C@@H](C(C)CC)C(=O)N[C@@H](Cc2ccc(O)cc2)C(=O)N2CCC[C@@H]2C(=O)N[C@@H](Cc2c[nH]c3ccccc23)C(=O)N[C@@H](Cc2ccc(O)cc2)C(=O)N[C@@H](CC(C)C)C(=O)N[C@H](C(=O)NCC(N)=O)CSCC(=O)N[C@@H](Cc2ccc(F)cc2)C(=O)N(C)[C@@H](Cc2ccccc2)C(=O)N1C (stereo partly drawn) [Example 9257] ({CH2CO}-[Phe(4-F)][NMeF][NMeNle][dP]DV[NMeIle(3ξ)]Y[dP]WYLCG-NH2; thioether N-13)	5.00 to 6.00	–
CCCC[C@H]1C(=O)N2CCC[C@@H]2C(=O)N[C@@H](CC(=O)O)C(=O)N[C@@H](C(C)C)C(=O)N(C)[C@@H](Cc2ccccc2)C(=O)N[C@@H](CCCN)C(=O)N2CCC[C@@H]2C(=O)N[C@@H](Cc2c[nH]c3ccccc23)C(=O)N[C@@H](Cc2ccc(O)cc2)C(=O)N[C@@H](CC(C)C)C(=O)N[C@H](C(=O)NCC(N)=O)CSCC(=O)N[C@@H](Cc2cc(F)c(F)c(F)c2)C(=O)N(C)[C@@H](Cc2ccccc2)C(=O)N1C [Example 10104] ({CH2CO}-[Phe(3,4,5-F3)][NMeF][NMeNle][dP]DV[NMeF][Orn][dP]WYLCG-NH2; thioether N-13)	8.00 to 9.00	–
CCCC[C@H]1C(=O)N(C)CC(=O)N[C@@H](CC(=O)O)C(=O)N[C@@H](C(C)C)C(=O)N(C)[C@@H](Cc2ccccc2)C(=O)N[C@@H](Cc2ccc(O)cc2)C(=O)N(C)CC(=O)N[C@@H](Cc2c[nH]c3ccc(Cl)cc23)C(=O)N[C@@H](Cc2ccc(O)cc2)C(=O)N[C@@H](CC(C)C)C(=O)N[C@H](C(=O)NCC(N)=O)CSCC(=O)N[C@@H](Cc2ccccc2)C(=O)N(C)[C@@H](Cc2ccccc2)C(=O)N1C [Example 3236] ({CH2CO}-F[NMeF][NMeNle][Sar]DV[NMeF]Y[Sar][Trp(5-Cl)]YLCG-NH2; thioether N-13)	7.00 to 8.00	–
